Assay results from article PMC7413254 (Nature Communications, 2020).
Like-named read-outs stand apart in the source and are kept apart here.

Legend:
[1] = test system: non-expressing oocytes; experiment: cells; type: cell-based, Xenopus laevis; conditions: non-expressing oocytes, total [3H]CQ transport, normalised to the oocyte type control
In short: (§1)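 Inward transport into oocyte cytosol from pH 5.5 medium models PfCRT efflux from the acidic digestive vacuole. Incubation 1.5 h, 27.5 °C; termination by ice-cold washes; lysate radioactivity counted.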

[2] = target: T1, PfCRT^3D7 (Plasmodium falciparum, UniProt Q8IBZ9); experiment: cell-based; type: cell-based; conditions: PfCRT3D7 oocytes, total [3H]CQ transport, normalised to the oocyte type control
In short: as §1

[3] = target: T2, PfCRT^Dd2 (Plasmodium falciparum, UniProt Q9N623, A220S/I356T/K76T/M74I/N326S/N75E/Q271E/R371I); experiment: [3H]CQ uptake into Xenopus oocytes, cis-inhibition by unlabelled solute; type: cell-based; conditions: PfCRTDd2 oocytes, background [3H]CQ accumulation subtracted, normalised to oocyte type control
In short: as §1

[4] = target: T3, PfCRT^Ecu1110 (Plasmodium falciparum, UniProt Q9N623, A220S/I356L/K76T/N326D); experiment: as above; type: cell-based; conditions: for Uptake of [3H]CQ (% PfCRTEcu1110 control), cis-inhibition / PfCRT-mediated [3H]CQ transport, cis-inhibition (% PfCRTEcu1110 control): PfCRTEcu1110 oocytes; for Uptake of [3H]CQ (% PfCRTEcu1110 control), cis-inhibition: total [3H]CQ transport, normalised to the oocyte type control; for PfCRT-mediated [3H]CQ transport, cis-inhibition (% PfCRTEcu1110 control): background [3H]CQ accumulation subtracted, normalised to oocyte type control; for [3H]CQ transport (% PfCRTEcu1110 control), cis-inhibition, PfCRTEcu1110: PfCRT-mediated component (background subtracted), sheet title says normalised to PfCRTDd2 control, mean ± SEM, SEM
In short: as §1

[5] = test system: non-expressing oocytes; type: cell-based, Xenopus laevis; conditions: non-expressing oocytes, total [3H]CQ transport, normalised to the oocyte type control
In short: (§2)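 Oocytes (ten per treatment, ≥4 independent frogs/days) were preloaded by injecting VF-6 in 25 nL ND96 at pH 5.0, 5.5, 6.0 or 7.0, or Na^+-free choline buffer, then uptake run 1.5 h, 27.5 °C, ND96 pH 5.5 by default. Internal concentrations assumed ~400 nL oocyte volume.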

[6] = target: T1, PfCRT^3D7; experiment: cell-based; type: cell-based; conditions: PfCRT3D7 oocytes; for Uptake of [3H]CQ (% PfCRT3D7 control), trans-stimulation: total [3H]CQ transport, normalised to the oocyte type control; for PfCRT-mediated [3H]CQ transport, trans-stimulation (% PfCRT3D7 control): normalised to oocyte type control
In short: as §2

[7] = target: T2, PfCRT^Dd2; experiment: cell-based; type: cell-based; conditions: for Uptake of [3H]CQ (% PfCRTDd2 control), trans-stimulation / PfCRT-mediated [3H]CQ transport, trans-stimulation (% PfCRTDd2 control): PfCRTDd2 oocytes; for Uptake of [3H]CQ (% PfCRTDd2 control), trans-stimulation: total [3H]CQ transport, normalised to the oocyte type control; for PfCRT-mediated [3H]CQ transport, trans-stimulation (% PfCRTDd2 control): normalised to oocyte type control; for [3H]CQ transport (% PfCRTDd2 control), trans-stimulation, PfCRTDd2: PfCRT-mediated component (background subtracted), mean ± SEM, SEM
In short: as §2

[8] = target: T3, PfCRT^Ecu1110; experiment: cell-based; type: cell-based; conditions: for Uptake of [3H]CQ (% PfCRTEcu1110 control), trans-stimulation / PfCRT-mediated [3H]CQ transport, trans-stimulation (% PfCRTEcu1110 control): PfCRTEcu1110 oocytes; for Uptake of [3H]CQ (% PfCRTEcu1110 control), trans-stimulation: total [3H]CQ transport, normalised to the oocyte type control; for PfCRT-mediated [3H]CQ transport, trans-stimulation (% PfCRTEcu1110 control): normalised to oocyte type control; for [3H]CQ transport (% PfCRTDd2 control), trans-stimulation, PfCRTEcu1110: PfCRT-mediated component (background subtracted), sheet title says normalised to PfCRTDd2 control, mean ± SEM, SEM
In short: as §2

[9] = target: T4, PfNT1 (Plasmodium falciparum, UniProt Q8IDM6); experiment: cell-based; type: cell-based; conditions: PfNT1 oocytes, total [3H]CQ transport, normalised to the oocyte type control
T4 construct: expressed in transfected cells; host or cells: Xenopus laevis oocytes (stage V-VI), cRNA-injected
In short: as §2

[10] = [test solute]i = 45 mM (30 mM for some solutes due to solubility)
[11] = [test solute]i = 5 mM (intracellular)
[12] = [test solute]i = 45 mM (intracellular; 30 mM for some solutes due to solubility)
[13] = [test solute]i = 5 mM (injected)

T3 sequence (Q9N623 whole entry A220S/I356L/K76T/N326D): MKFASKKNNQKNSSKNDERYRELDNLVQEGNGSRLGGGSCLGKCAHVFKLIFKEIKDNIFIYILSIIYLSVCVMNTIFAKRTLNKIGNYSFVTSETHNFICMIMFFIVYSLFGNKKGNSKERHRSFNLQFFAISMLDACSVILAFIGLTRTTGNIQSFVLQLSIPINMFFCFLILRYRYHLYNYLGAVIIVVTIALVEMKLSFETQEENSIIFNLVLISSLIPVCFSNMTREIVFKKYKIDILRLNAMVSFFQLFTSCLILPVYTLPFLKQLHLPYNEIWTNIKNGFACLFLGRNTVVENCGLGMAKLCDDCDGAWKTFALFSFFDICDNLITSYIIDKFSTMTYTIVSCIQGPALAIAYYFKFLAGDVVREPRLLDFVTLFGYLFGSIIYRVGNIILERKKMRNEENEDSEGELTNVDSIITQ
T1 sequence (Q8IBZ9 59-398): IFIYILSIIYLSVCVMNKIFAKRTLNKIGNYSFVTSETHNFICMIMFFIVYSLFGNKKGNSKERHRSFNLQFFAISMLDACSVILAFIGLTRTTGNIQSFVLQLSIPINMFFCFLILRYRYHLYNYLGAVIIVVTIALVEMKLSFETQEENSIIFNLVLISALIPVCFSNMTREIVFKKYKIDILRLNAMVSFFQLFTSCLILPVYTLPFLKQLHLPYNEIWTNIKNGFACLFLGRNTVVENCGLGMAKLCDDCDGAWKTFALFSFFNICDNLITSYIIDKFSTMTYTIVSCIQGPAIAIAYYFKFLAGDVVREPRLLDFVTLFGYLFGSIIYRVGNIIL
T2 sequence (Q9N623 whole entry A220S/I356T/K76T/M74I/N326S/N75E/Q271E/R371I): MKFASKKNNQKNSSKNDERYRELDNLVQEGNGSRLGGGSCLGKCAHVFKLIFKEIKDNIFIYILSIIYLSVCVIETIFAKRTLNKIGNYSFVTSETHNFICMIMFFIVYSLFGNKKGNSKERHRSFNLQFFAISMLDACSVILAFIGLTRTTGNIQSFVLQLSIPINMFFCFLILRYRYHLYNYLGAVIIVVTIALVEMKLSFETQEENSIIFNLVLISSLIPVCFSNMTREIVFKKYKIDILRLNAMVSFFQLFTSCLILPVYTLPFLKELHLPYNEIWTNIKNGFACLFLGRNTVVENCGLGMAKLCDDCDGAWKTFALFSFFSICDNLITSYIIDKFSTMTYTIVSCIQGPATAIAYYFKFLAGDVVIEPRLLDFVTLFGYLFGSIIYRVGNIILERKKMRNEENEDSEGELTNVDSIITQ
T4 sequence (Q8IDM6 whole entry): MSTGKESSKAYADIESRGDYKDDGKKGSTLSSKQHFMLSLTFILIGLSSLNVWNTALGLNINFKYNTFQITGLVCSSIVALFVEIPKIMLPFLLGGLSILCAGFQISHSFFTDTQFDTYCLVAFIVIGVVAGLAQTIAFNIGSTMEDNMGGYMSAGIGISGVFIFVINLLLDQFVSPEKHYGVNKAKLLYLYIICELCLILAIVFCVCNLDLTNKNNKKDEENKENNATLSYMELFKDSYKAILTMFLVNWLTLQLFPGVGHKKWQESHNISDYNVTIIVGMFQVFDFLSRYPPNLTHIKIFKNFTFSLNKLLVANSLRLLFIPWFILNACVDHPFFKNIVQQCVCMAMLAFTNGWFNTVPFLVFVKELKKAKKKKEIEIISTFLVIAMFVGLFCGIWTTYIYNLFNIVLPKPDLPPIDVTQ

## ASLD [AD-4]
[1]; [test solute] = 0.5 mM
  Uptake of [3H]CQ (% non-expressing oocyte control), cis-inhibition: 99 ± 5.3 % non-expressing oocyte control
[1]; [test solute] = 1 mM
  Uptake of [3H]CQ (% non-expressing oocyte control), cis-inhibition: 99 ± 5.2 % non-expressing oocyte control
[1]; [test solute] = 2 mM
  Uptake of [3H]CQ (% non-expressing oocyte control), cis-inhibition: 99 ± 4.6 % non-expressing oocyte control
[2]; [test solute] = 0.5 mM
  Uptake of [3H]CQ (% PfCRT3D7 control), cis-inhibition: 98 ± 4.4 % PfCRT3D7 control
[2]; [test solute] = 1 mM
  Uptake of [3H]CQ (% PfCRT3D7 control), cis-inhibition: 99 ± 4.7 % PfCRT3D7 control
[2]; [test solute] = 2 mM
  Uptake of [3H]CQ (% PfCRT3D7 control), cis-inhibition: 99 ± 6.1 % PfCRT3D7 control
[3]; [test solute] = 0.5 mM
  PfCRT-mediated [3H]CQ transport, cis-inhibition (% PfCRTDd2 control): 31 ± 1.9 % PfCRTDd2 control
[3]; [test solute] = 1 mM
  PfCRT-mediated [3H]CQ transport, cis-inhibition (% PfCRTDd2 control): 22 ± 0.8 % PfCRTDd2 control
[3]; [test solute] = 2 mM
  PfCRT-mediated [3H]CQ transport, cis-inhibition (% PfCRTDd2 control): 12 ± 0.3 % PfCRTDd2 control
[4]; [test solute] = 0.5 mM
  Uptake of [3H]CQ (% PfCRTEcu1110 control), cis-inhibition: 49 ± 9.7 % PfCRTEcu1110 control
  PfCRT-mediated [3H]CQ transport, cis-inhibition (% PfCRTEcu1110 control): 42 ± 2.1 % PfCRTEcu1110 control
  [3H]CQ transport (% PfCRTEcu1110 control), cis-inhibition, PfCRTEcu1110: 13 ± 0.2 % PfCRTEcu1110 control
[4]; [test solute] = 1 mM
  Uptake of [3H]CQ (% PfCRTEcu1110 control), cis-inhibition: 32 ± 8.5 % PfCRTEcu1110 control
  PfCRT-mediated [3H]CQ transport, cis-inhibition (% PfCRTEcu1110 control): 28 ± 3.4 % PfCRTEcu1110 control
[4]; [test solute] = 2 mM
  Uptake of [3H]CQ (% PfCRTEcu1110 control), cis-inhibition: 26 ± 5.6 % PfCRTEcu1110 control
  PfCRT-mediated [3H]CQ transport, cis-inhibition (% PfCRTEcu1110 control): 21 ± 1.1 % PfCRTEcu1110 control
  [3H]CQ transport (% PfCRTEcu1110 control), cis-inhibition, PfCRTEcu1110: 6.0 ± 0.03 % PfCRTEcu1110 control
[5]; [test solute]i = 5 mM
  Uptake of [3H]CQ (% non-expressing oocyte control), trans-stimulation: 100 ± 4.9 % non-expressing oocyte control
[5]; [10]
  Uptake of [3H]CQ (% non-expressing oocyte control), trans-stimulation: 98 ± 2.6 % non-expressing oocyte control
[6]; [test solute]i = 5 mM
  Uptake of [3H]CQ (% PfCRT3D7 control), trans-stimulation: 99 ± 3.7 % PfCRT3D7 control
[6]; [10]
  Uptake of [3H]CQ (% PfCRT3D7 control), trans-stimulation: 100 ± 2.6 % PfCRT3D7 control
[6]; [11]
  PfCRT-mediated [3H]CQ transport, trans-stimulation (% PfCRT3D7 control): 97 ± 2.0 % PfCRT3D7 control
[6]; [12]
  PfCRT-mediated [3H]CQ transport, trans-stimulation (% PfCRT3D7 control): 98 ± 3.3 % PfCRT3D7 control
[7]; [test solute]i = 5 mM
  Uptake of [3H]CQ (% PfCRTDd2 control), trans-stimulation: 98 ± 3.3 % PfCRTDd2 control
[7]; [10]
  Uptake of [3H]CQ (% PfCRTDd2 control), trans-stimulation: 97 ± 3.9 % PfCRTDd2 control
  [3H]CQ transport (% PfCRTDd2 control), trans-stimulation, PfCRTDd2: 95 ± 2.6 % PfCRTDd2 control
[7]; [11]
  PfCRT-mediated [3H]CQ transport, trans-stimulation (% PfCRTDd2 control): 96 ± 2.9 % PfCRTDd2 control
[7]; [12]
  PfCRT-mediated [3H]CQ transport, trans-stimulation (% PfCRTDd2 control): 95 ± 2.6 % PfCRTDd2 control
[7]; [13]
  [3H]CQ transport (% PfCRTDd2 control), trans-stimulation, PfCRTDd2: 96 ± 2.9 % PfCRTDd2 control
[8]; [test solute]i = 5 mM
  Uptake of [3H]CQ (% PfCRTEcu1110 control), trans-stimulation: 100 ± 3.2 % PfCRTEcu1110 control
[8]; [10]
  Uptake of [3H]CQ (% PfCRTEcu1110 control), trans-stimulation: 99 ± 3.2 % PfCRTEcu1110 control
  [3H]CQ transport (% PfCRTDd2 control), trans-stimulation, PfCRTEcu1110: 29 ± 1.4 % PfCRTEcu1110 control
[8]; [11]
  PfCRT-mediated [3H]CQ transport, trans-stimulation (% PfCRTEcu1110 control): 98 ± 4.1 % PfCRTEcu1110 control
[8]; [12]
  PfCRT-mediated [3H]CQ transport, trans-stimulation (% PfCRTEcu1110 control): 97 ± 2.9 % PfCRTEcu1110 control
[8]; [13]
  [3H]CQ transport (% PfCRTDd2 control), trans-stimulation, PfCRTEcu1110: 30 ± 1.7 % PfCRTEcu1110 control
[9]; [test solute]i = 5 mM
  Uptake of [3H]CQ (% PfNT1 control), trans-stimulation: 99 ± 2.5 % PfNT1 control
[9]; [10]
  Uptake of [3H]CQ (% PfNT1 control), trans-stimulation: 96 ± 2.2 % PfNT1 control
